These are literature values, as cited in paper PMC8136953 (Veterinary Medicine and Science, 2020).

Details of the series: method as in Park et al., 2006. Conditions: ref Park et al., 2006; cited from earlier work.

For the molecule `CS(=O)(=O)c1ccc([C@@H](O)[C@H](N)CF)cc1` [FLO amine, florfenicol amine], the Antibacterial activity result is given as “virtually lacks antibacterial activity”.
